Series [1] in a line: Cytotoxicity assay for HepG2 (MTT). Type of series: cell-based, human. As to conditions: human. Here is the method: (§1) Mammalian cytotoxicity assays were performed by Cyprotex. Cytotoxicity was assessed using the MTT assay. Briefly, HepG2 human hepatocellular carcinoma cells (100 μL per well) were plated on black-walled clear-bottomed polystyrene 96-well tissue culture treated plates 24 h prior to dosing the cells. The cells were dosed with test compound (dissolved in 0.5% DMSO in growth media containing 10% FBS) at a range of concentrations (0.04 μM, 0.1 μM, 0.4 μM, 1 μM, 4 μM, 10 μM, 40 μM, 100 μM). After 23 h period the cells were loaded with the MTT dye (yellow; 3-(4,5-dimethyl-2-thiazolyl)-2,5-diphenyl-2H-tetrazolium bromide) followed by an additional 1 h incubation (resulting in a total incubation time with antibiotics of 24 h). Subsequently, the plates are dried and solubilized in DMSO followed by scanning at 570 nm using a microplate absorbance reader. Cell viability is determined by conversion of the soluble MTT to insoluble formazan (purple) by mitochondrial […] in live cells. Production of formazan indicates […]. Carbonyl cyanide 3-chlorophenylhydrazone is used as no response control and chlorpromazine is used as control known to be cytotoxic. Solvent control wells (0.5% DMSO in growth media containing 10% FBS) are then used to determine significance limits for wells that have a greater than expected fraction of low or high responders. The minimum effective concentration is determined from the lowest concentration whose mean value exceeds the significance level, provided either a clear dose-response relationship is observed, or at least two consecutive concentration points are above the significance level. AC50 values are also determined provided a clear dose-response relationship is observed. Experiment was performed in triplicates.

Series [2] has as its system HepG2 human hepatocellular carcinoma cells. The experiment in a line: Cytotoxicity assay for HepG2 (MTT). Type of series: cell-based. Here is the method: as §1
Another series deals with E. faecium E155. The experiment in a line: microbe, parasite or virus in culture. It is filed as cell-based, Enterococcus faecium. Here is the method: (§2) The antibacterial activity of the compounds was tested against a panel of bacteria, including Gram-positive bacteria (S. aureus ATCC29213, S. aureus USA300, S. aureus LIM-2, NR-45881, S. aureus HIP13419, NR-46413, E. faecium E155, E. faecium E7314, E. faecium E980, E. faecalis E1246, E. faecalis E7406 and S. pneumonia 153). The antibacterial activity of the compounds was further tested against S. aureus NY-155, NR-46236, S. aureus HIP12864, NR-46074, S. aureus 880 (BR-VRSA), NR-49120, E. faecalis E1246, E. faecalis E7604, as well as some Gram-negative bacteria (Escherichia coli and Klebsiella pneumoniae). Minimum inhibitory concentrations (MICs) in μg/mL were performed according to the CLSI guidelines. From glycerol stocks, bacterial strains were cultured on blood agar plates and incubated at 37° C. for 18 h. A single colony was transferred to tryptic soy broth (TSB) with 0.002% polysorbate 80 (p80). For the Enterococcus, VISA and VRSA strains, the cultures were grown at 37° C. until the optical density of the suspension reached a level equivalent to the 0.5 McFarland standard. The bacterial suspensions were diluted in TSB with 0.002% p80 to reach a bacterial cell density of 10^6 CFU/mL. In case of the other (vancomycin-sensitive) S. aureus strains, the direct colony suspension method was used. For these strains, after transfer of the colonies to TSB with 0.002% p80, they were immediately diluted to 10^6 CFU/mL, instead of incubated prior to this dilution. In the case of S. pneumonia, direct colony suspension was used by immediately suspending multiple colonies from fresh blood agar plates in TSB+0.002% p80 to an OD600 of 0.5 and subsequent dilution to 10^6 CFU mL^−1 in TSB+0.002% p80+5% lysed horse blood. Antibiotic dilutions for this strains were also made in TSB+0.002% p80+5% lysed horse blood. Both agar and microplates containing S. pneumonia were incubated at 37° C. with 5% CO2 for 24 h with constant shaking (600 rpm). […] The cultures were grown to exponential phase (OD600=0.5) at 37° C. […] In polypropylene 96-well microtiter plates, test compounds were added in biological triplicates and serial diluted 2-fold by transfer and mixing from one well to the next to achieve a final volume of 50 μL per well. An equal volume of bacterial suspension (10^6 CFU mL^−1) was added to the wells. The plates were sealed with breathable membranes and incubated at 37° C. for 24 h with constant shaking (600 rpm). In polypropylene microtiter plates, 100 μL of the test compounds was added to the first row in biological triplicates, and 50 μL of media was added to the other wells. The compounds were subjected to serial dilution by transfer and mixing of 50 μL from one well to the next. Subsequently, 50 μL of bacterial suspension (10^6 CFU/mL) was added to the wells. The plates were sealed with breathable membranes and incubated at 37° C. for 24 h with constant shaking (600 rpm). Positive growth control consisted of wells with bacterial suspension and without antibiotic. Negative growth control consisted of solely media without bacterial suspension or antibiotic. The MICs were determined from the median of a minimum of triplicates.

Another series concerns E. faecium E7314. The experiment in a line: microbe, parasite or virus in culture. Type of series: cell-based, Enterococcus faecium. Here is the method: as §2
In the next series the test system is E. faecalis E7406. The experiment in a line: microbe, parasite or virus in culture. It is filed as cell-based, Enterococcus faecalis. Here is the method:
as §2

Another series concerns E. faecalis E7604. Kind of series: microbe, parasite or virus in culture. It is filed as cell-based, Enterococcus faecalis. Here is the method:
as §2

Another series relates to S. aureus USA300. Kind of series: microbe, parasite or virus in culture. Type of series: cell-based, Staphylococcus aureus. Here is the method: as §2
The subject of series [3] is S. aureus HIP13419, NR-46413. The experiment in a line: microbe, parasite or virus in culture. Type of series: cell-based, Staphylococcus aureus. Here is the method:
as §2

The test system of another series is S. pneumoniae 153. Kind of series: MIC assay. It is filed as cell-based. As to conditions: S. pneumoniae 153, TSB+0.002% p80+5% lysed horse blood. Here is the method: as §2
A further series concerns MRSA USA300. Kind of series: MIC assay in the presence of sheep serum. It is filed as cell-based, Staphylococcus aureus. As to conditions: MRSA USA300, TSB + 0.002% p80 + 50% sheep serum. Here is the method:
as §2
The activity of the compounds was further assessed against MRSA USA300 strain in the presence of sheep) serum in another MIC assay. The cultures that grew in the presence of serum used TSB+0.002% P80+50% sheep serum as growth media, as opposed to normal MICs done in only TSB+0.002% P80.

The test system of the next series is E. faecalis E1246. The experiment in a line: MIC assay. Type of series: cell-based, Enterococcus faecalis. Here is the method:
as §2

A further series relates to E. faecium E980. The experiment in a line: MIC assay. Type of series: cell-based, Enterococcus faecium. Here is the method:
as §2

The test system of series [4] is S. aureus 880 (BR-VRSA), NR-49120. The experiment in a line: MIC assay. It is filed as cell-based, Staphylococcus aureus. As to conditions: S. aureus 880, NR-49120 VRSA. Here is the method: as §2
Series [5] concerns S. aureus LIM-2, NR-25881. Kind of series: MIC assay. Type of series: cell-based, Staphylococcus aureus. The settings on record: S. aureus LIM-2, NR-25881 VISA. Here is the method:
as §2

A further series has as its system S. aureus ATCC29213. Kind of series: MIC assay. It is filed as cell-based, Staphylococcus aureus. Here is the method: as §2
Series [6] relates to S. aureus HIP12864, NR-46074. The experiment in a line: MIC assay. Type of series: cell-based, Staphylococcus aureus. As to conditions: S. aureus HIP12864, NR-46074 VISA. Here is the method: as §2
Series [7] deals with S. aureus NY-155, NR-46236. The experiment in a line: MIC assay. It is filed as cell-based, Staphylococcus aureus. As to conditions: S. aureus NY-155, NR-46236 MRSA. Here is the method:
as §2

[8] abbreviates: E. faecalis E1246 VRE (vanA), Table 9.
[9] abbreviates: Staphylococcus aureus, read-out: MIC.

Values after ≈ are worked out from the molar mass of the structure shown. Read-outs that look alike come from different tables or passages of the source. A value given as a limit tells only on which side of the number the result lay.

A word on the AC50: it is the concentration giving half of the maximal activity seen. Turning to `CN(C)CCCN1c2ccccc2Sc2ccc(Cl)cc21` [Chropromazine], the AC50 at 24 h in [1] was 19 µM. Moreover, the “Direction of response (↑↓)” value in series [2] was “↓”. This molecule also returned an MEC in [2] (human, 24 h) of 12.4 µM.
For the molecule `CN[C@H](CC(C)C)C(=O)N[C@H]1C(=O)N[C@@H](CC(N)=O)C(=O)N[C@H]2C(=O)N[C@H]3C(=O)N[C@H](C(=O)N[C@H](C(=O)O)c4cc(O)cc(O)c4-c4cc3ccc4O)[C@H](O)c3ccc(c(Cl)c3)Oc3cc2cc(c3O[C@@H]2O[C@H](CO)[C@@H](O)[C@H](O)[C@H]2O[C@H]2C[C@](C)(NCc3ccc(N=C(N)NCC45CC6CC(CC(C6)C4)C5)cc3)[C@H](O)[C@H](C)O2)Oc2ccc(cc2Cl)[C@H]1O` [Compound 18], the MIC against E. faecium E155 (E. faecium E155 VRE (VanA)) is 2 µg/mL (≈ 1.15 µM); in the series with E. faecium E7314 (E. faecium E7314 VRE (VanB)) it was at most 0.008 µg/mL; in the series with E. faecalis E7406 (E. faecalis E7406 VRE (VanB)), at most 0.008 µg/mL; with E. faecalis E7604 (E. faecalis E7604 VRE (vanB)) it was at most 0.008 µg/mL; with S. aureus USA300 (MRSA USA300, TSB + 0.002% p80), at most 0.008 µg/mL; against S. aureus USA300 (S. aureus USA300 MRSA), at most 0.008 µg/mL. For the same molecule, the MIC in series [3] (S. aureus HIP13419, NR-46413 VRSA) is 2 µg/mL (≈ 1.15 µM); with S. pneumoniae 153, at most 8 ng/mL; in the series on MRSA USA300, 0.031 µg/mL; in the series on E. faecalis E1246 (E. faecalis E1246 VRE (VanA), Table 7), 16 µg/mL (≈ 9.17 µM); in the series on E. faecalis E1246 (setting [8]), 16 µg/mL (≈ 9.17 µM); with E. faecium E980 (E. faecium E980 VSE) it was at most 0.008 µg/mL. Moreover, the MIC in series [4] was 2 µg/mL (≈ 1.15 µM); in series [5], 0.016 µg/mL (≈ 0.00917 µM); with S. aureus ATCC29213 (S. aureus ATCC29213 MSSA), at most 0.008 µg/mL; in series [6], at most 0.016 µg/mL; in series [7], at most 8 ng/mL.
Consider `CN[C@H]1C(=O)N[C@@H]2Cc3ccc(cc3)Oc3cc4cc(c3O[C@@H]3O[C@H](C(=O)O)[C@@H](O)[C@H](O)[C@H]3NC(=O)CCCCCCCCC(C)C)Oc3ccc(cc3Cl)[C@@H](O)[C@@H]3NC(=O)[C@H](NC(=O)[C@@H]4NC(=O)[C@@H](NC2=O)c2cc(cc(O)c2Cl)Oc2cc1ccc2O)c1ccc(O)c(c1)-c1c(O[C@H]2O[C@H](CO)[C@@H](O)[C@H](O)[C@@H]2O)cc(O)cc1[C@@H](C(=O)NCCCN(C)C)NC3=O` [Dalbavancin, reference compound], for which the MIC in the series on E. faecium E155 (Enterococcus faecium, VRE) came to 128 µg/mL (≈ 70.5 µM); with E. faecium E7314 (Enterococcus faecium, VRE) it was 0.0156 µg/mL (≈ 0.0086 µM); with E. faecalis E7406 (Enterococcus faecalis, VRE) it was 0.0312 µg/mL (≈ 0.0172 µM); against E. faecalis E7604 (Enterococcus faecalis, VRE), 0.031 µg/mL (≈ 0.0171 µM); with S. aureus USA300 (Staphylococcus aureus, MRSA / USA300) it was 0.25 µg/mL (≈ 0.138 µM); in series [3] (Staphylococcus aureus, VRSA), 16 µg/mL (≈ 8.81 µM). The MIC is at most 8 ng/mL with S. pneumoniae 153 (Streptococcus pneumoniae, read-out: MIC); 2 µg/mL in the series with MRSA USA300 (Staphylococcus aureus, 24 h, read-out: MIC); above 128 µg/mL with E. faecalis E1246 (setting [8]); above 128 µg/mL in the series on E. faecalis E1246 (Enterococcus faecalis, E. faecalis E1246 VRE (VanA), Table 7, read-out: MIC); 0.0625 µg/mL (≈ 0.0344 µM) against E. faecium E980 (Enterococcus faecium, E980); 2 µg/mL (≈ 1.1 µM) in series [4] (setting [9]). Further, the MIC in [5] (setting [9]) is 1 µg/mL (≈ 0.55 µM); against S. aureus ATCC29213 (Staphylococcus aureus, ATCC 29213 / MSSA) it was 0.25 µg/mL (≈ 0.138 µM); in [6] (setting [9]), 0.5 µg/mL (≈ 0.275 µM); in series [7] (setting [9]), at most 8 ng/mL.
`N#CC(C#N)=NNc1cccc(Cl)c1` [carbonyl cyanide 3-chlorophenylhydrazone]: in series [1] (HepG2 human hepatocellular carcinoma cells, MTT, HepG2, 24 h, 10% FBS, n = 3, read-out: AC50), the concentration at half-maximal activity (AC50) at 24 h is above 100 µM.

The record behind these values is patent US20230174584A1, “Antibiotic Compounds” (priority 2019, published 2023).
